The values that follow are results of earlier work, collected in US20070218050A1, “Methods for treatment and prevention of otitis media using chemical penetration enhancers to facilitate transmembrane drug delivery into the middle ear” (Piedmont Pharmaceuticals LLC, priority 2005, published 2007).

SMILES strings stand for the structures.

For data set [1] the following is noted: round window membrane of the inner ear and cochlea; Marsh and Tom 1989.
The conditions of data set [2]: concentrations at or in excess of 50% v/v, applied to the middle ear; Vassalli et al. 1988.

`CC(O)CO` (centres unmarked) [propylene glycol]: the Inner ear ototoxicity result in data set [1] is given as “implicated in inner ear ototoxicity”. Besides, the “Damage to the middle ear” value in data set [2] is given as “produces inflammation-related damage to the middle ear”.
